Assay in all cases: inhibition of tumour cell growth, NCI panel, 48 h
Assay [1] relates to SR.
For assay [2], the system named is HCT-116.
Assay [3] relates to HL-60.
Assay [4] relates to RXF 393.
Assay [5] has as its system Hs-578T.
The subject of assay [6] is 786-0.
The test system of assay [7] is SNB-19.
Assay [8] deals with NCI-H23.
In assay [9] the test system is IGROV-1.
For assay [10], the system named is COLO 205.
In assay [11] the test system is T47D.
Assay [12] has as its system HCT-15.
For assay [13], the system named is M14.
For assay [14], the system named is SK-MEL-5.
For assay [15], the system named is SN12C.
Assay [16] has as its system MDA-MB-231.
In assay [17] the test system is K562.
For assay [18], the system named is TK-10.
Assay [19] relates to CCRF-CEM.
Assay [20] deals with SNB-75.

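Cultured in 96-well plates, cells were exposed to test compound for 48 hours across five concentrations. The concentration for 50% growth inhibition is given as GI50.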 Active and inactive are the calls of the source. Rule as the data show it: active = GI50 up to about 1.1 µM and inactive = higher.

As for `COC(=O)C(O)P(=O)(OC)OC` (stereo not drawn), the GI50 in assay [1], in [2], in assay [3], in assay [4], in assay [5] and in assay [6] was > 100 µM (inactive) throughout. Further, the GI50 was > 100 µM (inactive) in [7]; > 100 µM (inactive) in assay [8]; > 100 µM (inactive) in [9]; > 100 µM (inactive) in [10]; > 100 µM (inactive) in assay [11]; greater than 100 µM in assay [12]. Besides, the GI50 in assay [13], in assay [14], in assay [15], in assay [16] and in [17] was > 100 µM (inactive) in each case.
For the compound `COc1ccc(C=C2C(C)=NN(c3cccc(Cl)c3)C23C(Cl)C(=O)N3c2nc3ccccc3s2)cc1` (stereo not drawn), the GI50 was 21.6 µM (inactive) in [1]; 15.5 µM (inactive) in assay [2]; 2.05 µM (inactive) in assay [3]; 12.7 µM (inactive) in [4]; 14.4 µM (inactive) in assay [5]; 26.8 µM (inactive) in assay [18]. Also, the GI50 is 16 µM (inactive) in assay [6]; 15 µM (inactive) in assay [8]; 16.4 µM (inactive) in assay [9]; 24.6 µM (inactive) in [11]; 16.8 µM in assay [12]; 17.2 µM (inactive) in assay [13]. Further, the GI50 is 15.1 µM (inactive) in [14], 12.9 µM (inactive) in [16], 22.8 µM (inactive) in assay [17] and 3.45 µM (inactive) in assay [19].
On to `CSC(SC)=C(C(=O)O)P(=O)(O)O`, for which the GI50 in assay [1], in assay [2], in assay [3], in [4], in assay [5] and in assay [18] was > 100 µM (inactive) each time. The GI50 in assay [6], in assay [7], in [8], in [9], in assay [10] and in [11] was > 100 µM (inactive) each time. For the same compound, the GI50 in assay [12] was greater than 100 µM; in assay [13], > 100 µM (inactive); in [14], > 100 µM (inactive); in assay [15] it was > 100 µM (inactive); in assay [16] it was > 100 µM (inactive); in [19], > 100 µM (inactive).
Take `CCCCn1c(C)c2c(c1C)C(=O)N(CCN1CCN(c3ccccc3Cl)CC1)C2=O`: the GI50 in [1] is 26.4 µM (inactive); in assay [2] it was 18.6 µM (inactive); in assay [3], 22.1 µM (inactive); in assay [5] it was > 100 µM (inactive); in assay [18], 43.5 µM (inactive); in [6], > 10 µM (inactive). Further, the GI50 is 92.3 µM (inactive) in [7]; 27.2 µM (inactive) in [8]; 30.9 µM (inactive) in [9]; 35 µM (inactive) in assay [10]; 22.5 µM (inactive) in assay [11]; 35.6 µM in [12]. Further, the GI50 in [13] is 21.9 µM (inactive); in assay [14] it was 19.9 µM (inactive); in assay [20] it was 31.6 µM (inactive); in assay [15] it was 26.7 µM (inactive); in assay [16], 51.2 µM (inactive); in [17] it was 31.6 µM (inactive). The GI50 in assay [19] is 29.3 µM (inactive).
In the case of `Cc1cc(-c2cccc3ccccc23)c(C#N)c(=S)n1C1OC(CO)C(O)C(O)C1O` (stereo not drawn), the GI50 was 98.4 µM (inactive) in [1]; > 100 µM (inactive) in assay [2]; > 100 µM (inactive) in assay [3]; > 100 µM (inactive) in assay [4]; 86.5 µM (inactive) in [5]; > 100 µM (inactive) in [18]. Also, the GI50 is > 100 µM (inactive) in assay [6]; > 100 µM (inactive) in [8]; > 100 µM (inactive) in assay [9]; > 100 µM (inactive) in assay [10]; 52.7 µM (inactive) in assay [11]; greater than 100 µM in [12]. For the same compound, the GI50 was > 100 µM (inactive) in assay [13]; 67 µM (inactive) in [14]; 0.0379 µM (active) in assay [20]; 82.8 µM (inactive) in assay [15]; > 100 µM (inactive) in [16]; 71.1 µM (inactive) in assay [19].
`COC(=O)/C(=C(/C)c1ccco1)P(=O)(OC)OC`: the GI50 in [1], in [2], in assay [4], in assay [5], in assay [18] and in [6] was > 100 µM (inactive) in each case. For the same compound, the GI50 was > 100 µM (inactive) in assay [7]; > 100 µM (inactive) in assay [8]; > 100 µM (inactive) in assay [9]; > 100 µM (inactive) in assay [10]; > 100 µM (inactive) in assay [11]; greater than 100 µM in assay [12]. The GI50 in assay [13], in assay [14], in assay [20], in assay [15], in assay [16] and in [19] was > 100 µM (inactive) in each case.
As for `Cc1ccc(S(=O)(=O)NCCN(CCNS(=O)(=O)c2ccc(C)cc2)S(=O)(=O)c2ccc(C)cc2)cc1`, the GI50 is > 100 µM (inactive) in assay [1]; > 100 µM (inactive) in [2]; 87.9 µM (inactive) in assay [4]; 22.9 µM (inactive) in assay [5]; 41.4 µM (inactive) in [18]; 43.7 µM (inactive) in assay [6]. Further, the GI50 was 46.7 µM (inactive) in assay [7]; > 100 µM (inactive) in assay [8]; 84.1 µM (inactive) in [9]; > 100 µM (inactive) in assay [10]; > 100 µM (inactive) in assay [11]; greater than 100 µM in assay [12]. The GI50 in [13] is > 100 µM (inactive); in assay [14] it was 43.9 µM (inactive); in assay [15] it was > 100 µM (inactive); in [16], > 100 µM (inactive); in assay [17] it was > 100 µM (inactive); in assay [19] it was > 100 µM (inactive).
For `C=CCOc1cccc(C2(O)c3ccccc3C3=NCCCN32)c1` (stereo not drawn), the GI50 in assay [1] is 8.81 µM (inactive); in assay [2], 10.9 µM (inactive); in assay [3], 1.47 µM (inactive); in [5], 28.6 µM (inactive); in assay [18], 33.3 µM (inactive); in assay [6], 8.49 µM (inactive). The GI50 is 2.45 µM (inactive) in [7]; 10.3 µM (inactive) in [8]; 8.38 µM (inactive) in assay [9]; 15 µM (inactive) in assay [10]; 17.4 µM (inactive) in [11]; 20.6 µM in [12]. Moreover, the GI50 in assay [13] was 12.4 µM (inactive); in assay [14], 17 µM (inactive); in assay [20], 5.06 µM (inactive); in [15] it was 31.1 µM (inactive); in [16] it was 57 µM (inactive); in assay [17], 4.58 µM (inactive). The GI50 in [19] was 15.4 µM (inactive).
